Source: patent US12122761B2, “2-azaspiro[3.4]octane derivatives as M4 agonists” (NOVARTIS AG, priority 2019, dated 2024)

What was measured:
[1] = target: T1, human cloned CHRM4 receptor (M4_CHO cells) (Homo sapiens, UniProt P08173); experiment: CHRM4 Ca++ Flux Assay (agonist mode, FDSS 7000EX); assay type: cell-based; conditions: for Emax: Percent Activity, read-out: M4 FDSS PA; for EC50: geometric mean if tested more than once, read-out: M4 FDSS EC50
T1 construct: expressed in transfected cells; host or cells: CHO-K1
T1 sequence (P08173 1-479): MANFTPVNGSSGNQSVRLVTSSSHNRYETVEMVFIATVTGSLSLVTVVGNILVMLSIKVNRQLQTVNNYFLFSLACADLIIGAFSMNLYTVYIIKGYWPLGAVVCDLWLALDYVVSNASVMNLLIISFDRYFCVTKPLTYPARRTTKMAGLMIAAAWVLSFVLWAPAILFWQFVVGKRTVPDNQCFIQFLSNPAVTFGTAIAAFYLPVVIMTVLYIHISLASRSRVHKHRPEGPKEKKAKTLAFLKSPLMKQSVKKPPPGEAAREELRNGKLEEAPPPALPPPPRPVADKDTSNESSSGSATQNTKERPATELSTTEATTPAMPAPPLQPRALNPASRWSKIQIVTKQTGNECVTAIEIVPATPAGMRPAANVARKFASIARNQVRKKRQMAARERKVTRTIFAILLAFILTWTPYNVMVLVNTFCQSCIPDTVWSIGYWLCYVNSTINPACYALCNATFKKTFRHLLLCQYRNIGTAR
Outline: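 Agonist-mode response was expressed as percent of the Carbachol EC100 and fitted with four-parameter nonlinear regression over an 11-point triplicate dose series. Intracellular Ca++ was tracked for 3 min by fluorescent dye in CHO-K1 cells stably expressing human CHRM4. Cells were preincubated 60 min with 20 μM ATP in buffer containing 2.5 mM probenecid.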

[2] = target: T2, human cloned CHRM5 receptor (M5_CHO) (Homo sapiens, UniProt P08912); experiment: CHRM5 Ca++ Flux Assay (agonist mode, FDSS 7000EX); assay type: cell-based; conditions: for Emax: Percent Activity measured to EC100 of Carbachol, read-out: M5 FDSS PA; for EC50: agonist mode, geometric mean if tested more than once, read-out: M5 FDSS EC50
T2 construct: expressed in transfected cells; host or cells: CHO (M5_CHO)
T2 sequence (P08912 1-532): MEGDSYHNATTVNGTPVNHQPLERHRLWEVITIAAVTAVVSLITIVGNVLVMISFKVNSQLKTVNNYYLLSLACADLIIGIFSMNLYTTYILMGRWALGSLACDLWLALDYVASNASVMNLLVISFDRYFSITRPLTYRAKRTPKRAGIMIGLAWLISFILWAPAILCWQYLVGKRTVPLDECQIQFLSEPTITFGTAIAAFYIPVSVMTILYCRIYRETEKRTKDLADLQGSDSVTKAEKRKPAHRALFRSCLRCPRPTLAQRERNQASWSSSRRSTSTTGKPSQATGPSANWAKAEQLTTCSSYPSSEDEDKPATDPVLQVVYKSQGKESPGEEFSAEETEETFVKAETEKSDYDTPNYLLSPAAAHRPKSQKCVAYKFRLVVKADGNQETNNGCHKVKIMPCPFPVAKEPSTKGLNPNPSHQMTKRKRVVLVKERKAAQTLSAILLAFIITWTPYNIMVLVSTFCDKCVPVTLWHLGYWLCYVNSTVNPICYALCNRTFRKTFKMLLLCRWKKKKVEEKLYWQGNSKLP
Outline: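 Agonist responses are measured as calcium mobilization in CHO-K1 cells expressing human M3 or M5, tested over an 11-point dose range in triplicate. Percent activity is normalised to carbachol at EC100.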

| Structure (SMILES) | Emax [1] [%] | EC50 [1] [nM] | Emax [2] [%] | EC50 [2] [nM] |
| --- | --- | --- | --- | --- |
| Fc1cncc(N2CC3(CC[C@@H](N4CCC(c5ccccc5C5CCOCC5)CC4)C3)C2)c1 [Example 5AA, (R)-2-(5-fluoropyridin-3-yl)-6-(4-(2-(tetrahydro-2H-pyran-4-yl)phenyl)piperidin-1-yl)-2-azaspiro[3.4]octane] | 83 | 10 | 0 | > 25000 |
| c1ccc(C2CCN([C@@H]3CCC4(C3)CN(c3cncnc3)C4)CC2)c(C2CCOCC2)c1 [Example 5BB, (R)-2-(pyrimidin-5-yl)-6-(4-(2-(tetrahydro-2H-pyran-4-yl)phenyl)piperidin-1-yl)-2-azaspiro[3.4]octane] | 80 | 17 | 0 | > 25000 |
| CC(C)COc1ccccc1C1CCN([C@@H]2CCC3(C2)CN(C(=O)C2COC2)C3)CC1 [Example 7F, (R)-(6-(4-(2-isobutoxyphenyl)piperidin-1-yl)-2-azaspiro[3.4]octan-2-yl)(oxetan-3-yl)methanone] | 60 | 14 | 0 | > 25000 |
| COc1ccc(F)cc1C1CCN([C@@H]2CCC3(C2)CN(c2ccnnc2)C3)CC1 [Example 5V, (R)-6-(4-(5-fluoro-2-methoxyphenyl)piperidin-1-yl)-2-(pyridazin-4-yl)-2-azaspiro[3.4]octane] | 59 | 20 | 0 | > 25000 |
| COCCOc1ccccc1C1CCN([C@@H]2CCC3(C2)CN(c2ccnnc2)C3)CC1 [Example 5Z, (R)-6-(4-(2-(2-methoxyethoxy)phenyl)piperidin-1-yl)-2-(pyridazin-4-yl)-2-azaspiro[3.4]octane] | 44 | 42 | 0 | > 25000 |
| c1ccc(C2CCN([C@@H]3CCC4(C3)CN(c3cncnc3)C4)CC2)c(O[C@@H]2CCOC2)c1 [Example 1P, (R)-2-(pyrimidin-5-yl)-6-(4-(2-(((R)-tetrahydrofuran-3-yl)oxy)phenyl)piperidin-1-yl)-2-azaspiro[3.4]octane] | 61 | 1 | 0 | > 25000 |
| CC(C)(O)COc1ccccc1C1CCN([C@@H]2CCC3(C2)CN(c2nnco2)C3)CC1 [Example 2A, (R)-1-(2-(1-(2-(1,3,4-oxadiazol-2-yl)-2-azaspiro[3.4]octan-6-yl)piperidin-4-yl)phenoxy)-2-methylpropan-2-ol] | 69 | 10 | 0 | > 25000 |
| c1ccc(C2CCN([C@@H]3CCC4(C3)CN(c3nncs3)C4)CC2)c(OC2COC2)c1 [Example 3A, (R)-2-(6-(4-(2-(oxetan-3-yloxy)phenyl)piperidin-1-yl)-2-azaspiro[3.4]octan-2-yl)-1,3,4-thiadiazole] | 88 | < 0.4 | 0 | > 25000 |
| c1ccc(C2CCN([C@@H]3CCC4(C3)CN(c3nnco3)C4)CC2)c(OC2CCOCC2)c1 [Example 2F, (R)-2-(6-(4-(2-((tetrahydro-2H-pyran-4-yl)oxy)phenyl)piperidin-1-yl)-2-azaspiro[3.4]octan-2-yl)-1,3,4-oxadiazole] | 88 | 7 | 0 | > 25000 |
| COc1ccccc1C1CCN([C@@H]2CCC3(C2)CN(c2nncs2)C3)CC1 [Example 3D, (R)-2-(6-(4-(2-methoxyphenyl)piperidin-1-yl)-2-azaspiro[3.4]octan-2-yl)-1,3,4-thiadiazole] | 71 | 2 | 0 | > 25000 |
| Fc1ccc(C2CCOCC2)c(C2CCN([C@@H]3CCC4(C3)CN(c3nnco3)C4)CC2)c1 [Example 2I, (R)-2-(6-(4-(5-fluoro-2-(tetrahydro-2H-pyran-4-yl)phenyl)piperidin-1-yl)-2-azaspiro[3.4]octan-2-yl)-1,3,4-oxadiazole] | 96 | 1 | 0 | > 25000 |
| c1ccc(C2CCN([C@@H]3CCC4(C3)CN(c3nncs3)C4)CC2)c(OCC2COC2)c1 [Example 1G, (R)-2-(6-(4-(2-(oxetan-3-ylmethoxy)phenyl)piperidin-1-yl)-2-azaspiro[3.4]octan-2-yl)-1,3,4-thiadiazole] | 82 | 1 | 0 | > 25000 |
| COCCOc1ccccc1C1CCN([C@@H]2CCC3(C2)CN(c2nncs2)C3)CC1 [Example 3F, (R)-2-(6-(4-(2-(2-methoxyethoxy)phenyl)piperidin-1-yl)-2-azaspiro[3.4]octan-2-yl)-1,3,4-thiadiazole] | 60 | 6 | 0 | > 25000 |
| c1ccc(C2CCOC2)c(C2CCN([C@@H]3CCC4(C3)CN(c3nnco3)C4)CC2)c1 (stereo partly drawn) [Example 2K, 2-((6R)-6-(4-(2-(tetrahydrofuran-3-yl)phenyl)piperidin-1-yl)-2-azaspiro[3.4]octan-2-yl)-1,3,4-oxadiazole] | 93 | 3 | 0 | > 25000 |
| c1ccc(C2CCN([C@@H]3CCC4(C3)CN(c3nnco3)C4)CC2)c(OC2CC3(COC3)C2)c1 [Example 1A, (R)-2-(6-(4-(2-((2-oxaspiro[3.3]heptan-6-yl)oxy)phenyl)piperidin-1-yl)-2-azaspiro[3.4]octan-2-yl)-1,3,4-oxadiazole] | 81 | 1 | 0 | > 25000 |
| c1ccc(C2CCN([C@@H]3CCC4(C3)CN(c3nnco3)C4)CC2)c(OC[C@@H]2COCCO2)c1 [Example 1E, 2-((R)-6-(4-(2-(((S)-1,4-dioxan-2-yl)methoxy)phenyl)piperidin-1-yl)-2-azaspiro[3.4]octan-2-yl)-1,3,4-oxadiazole] | 72 | 1 | 0 | > 25000 |

Next, values leading:

| Emax [1] [%] | EC50 [1] [nM] | Emax [2] [%] | EC50 [2] [nM] | Structure (SMILES) |
| --- | --- | --- | --- | --- |
| 44 | 4 | 0 | > 25000 | CC(C)(F)COc1ccccc1C1CCN([C@@H]2CCC3(C2)CN(C(=O)C2COC2)C3)CC1 [Example 7B, (R)-(6-(4-(2-(2-fluoro-2-methylpropoxy)phenyl)piperidin-1-yl)-2-azaspiro[3.4]octan-2-yl)(oxetan-3-yl)methanone] |
| 47 | 2 | 0 | > 25000 | O=C(C1COC1)N1CC2(CC[C@@H](N3CCC(c4ccccc4OCCC4COC4)CC3)C2)C1 [Example 7KK, (R)-oxetan-3-yl(6-(4-(2-(2-(oxetan-3-yl)ethoxy)phenyl)piperidin-1-yl)-2-azaspiro[3.4]octan-2-yl)methanone] |
| 24 | 274 | 0 | > 25000 | O=C(C1COC1)N1CC2(CC[C@H](N3CCC(c4ccccc4OC(F)(F)F)CC3)C2)C1 (single isomer, unassigned) [Example 8G] |
| 59 | 3 | 13 | 1560 | O=C(C1COC1)N1CC2(CC[C@@H](N3CCC(c4ccccc4OC[C@@H]4CCOC4)CC3)C2)C1 [Example 7E, oxetan-3-yl((R)-6-(4-(2-(((R)-tetrahydrofuran-3-yl)methoxy)phenyl)piperidin-1-yl)-2-azaspiro[3.4]octan-2-yl)methanone] |
| 65 | 3 | 0 | > 25000 | O=C(N1CC2(CC[C@@H](N3CCC(c4ccccc4C4CCOCC4)CC3)C2)C1)C1(F)CC1 [Example 6E, (R)-(1-fluorocyclopropyl)(6-(4-(2-(tetrahydro-2H-pyran-4-yl)phenyl)piperidin-1-yl)-2-azaspiro[3.4]octan-2-yl)methanone] |
